This note sets out measurements from patent US20120142771A1, “BIPHENYLACETAMIDE DERIVATIVE” (Dainippon Sumitomo Pharma Co., Ltd., priority 2008, published 2012).

Assay [1] has as its system maximum electroshock seizure (MES) model. The assay can be described thus: Maximum electroshock seizure (MES) model test. Format: in vivo, mice. Particulars: for responders at 50 mg/kg / responders at 100 mg/kg: Mus musculus, po, 1 h, read-out: MES (positive number/tested number) (converted); for responders at 100 mg/kg: 100 mg/kg oral; for anticonvulsant action in maximum electroshock seizure (MES) model test: mice, oral 50 or 100 mg/kg, 1 hour after administration. Summed up: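 Tonic hind-limb extension was elicited by corneal electroshock (60 Hz, 25 mA, 0.2 s) 1 h after oral dosing. Test compounds were given at 50 or 100 mg/kg to groups of 3 male Slc: ddY mice (20-30 g), vehicle controls receiving 0.5% tragacanth or 0.5% methylcellulose solution.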

For assay [2], the system named is subcutaneously pentetrazol-injected model (scPTZ). As to the kind of experiment: Subcutaneously pentetrazol-injected model (scPTZ) test. Format: in vivo, mice. Particulars: pentetrazol 85 mg/kg s.c. after 1 hour; for responders at 50 mg/kg / responders at 100 mg/kg: Mus musculus, po, 1 h, Slc: ddY male mice, 3 per group, observed 30 minutes for clonic convulsion, read-out: scPTZ (positive number/tested number) (converted); for responders at 50 mg/kg: 50 mg/kg oral; for responders at 100 mg/kg: 100 mg/kg oral; for anticonvulsant action in subcutaneously pentetrazol-injected model (scPTZ) test: mice, oral 50 or 100 mg/kg. In short, it runs like this:
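Pentetrazol (85 mg/kg, s.c.) was injected one hour after oral test compound at 50 or 100 mg/kg in groups of three male Slc:ddY mice weighing 20-30 g; vehicle controls got 0.5% tragacanth or 0.5% methylcellulose.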

[3] abbreviates: 50 mg/kg oral, Slc: ddY male mice, 3 per group, electrical stimulation 1 hour after administration, inhibition of hind limb extension.
Where [4] appears, read: Slc: ddY male mice, 3 per group, electrical stimulation 1 hour after administration, inhibition of hind limb extension.

`NC(=O)Cc1ccccc1-c1ccc(Cl)c(C(F)(F)F)c1` [Example 75, 2-[4′-chloro-3′-(trifluoromethyl)biphenyl-2-yl]acetamide]: the results for the responders at 50 mg/kg in assay [1] (setting [3]) and in assay [2] were 0% and 33.3%, respectively. The responders at 100 mg/kg in assay [1] (setting [4]) was 100%; in assay [2], 66.7%.
Consider `N#Cc1ccc(Cl)cc1-c1ccccc1CC(N)=O` [Example 107], for which the responders at 100 mg/kg in assay [1] (setting [4]) was 0%; in assay [2], 100%.
The matching figures for `CNC(=O)Cc1ccccc1-c1cc(F)ccc1C(F)(F)F` [Example 101]: 100% and 0%.
Consider `CNC(=O)C(F)c1ccccc1-c1ccccc1F` (centres unmarked) [Example 165, 2-fluoro-2-(2′-fluorobiphenyl-2-yl)-N-methylacetamide], for which, in assay [1] (setting [3]), the responders at 50 mg/kg was 66.7%. The responders at 100 mg/kg in assay [1] (setting [4]) is 100%; in assay [2], 33.3%.
Consider `NC(=O)Cc1ccc(C(F)(F)F)cc1-c1cccc(F)c1` [Example 149, 2-[3′-fluoro-5-(trifluoromethyl)biphenyl-2-yl]acetamide], for which the figures for the responders at 50 mg/kg in assay [1] (setting [3]) and in assay [2] were 33.3% and 0%, respectively. In addition, the responders at 100 mg/kg in assay [1] (setting [4]) and in assay [2] was 66.7% each time.
As to `NC(=O)Cc1ccccc1-c1ccc(OC(F)(F)F)cc1` [Example 76, 2-[4′-(trifluoromethoxy)biphenyl-2-yl]acetamide], the values for the responders at 50 mg/kg in assay [1] (setting [3]) and in assay [2] were 0% and 33.3%, respectively. The responders at 100 mg/kg is 100% in assay [1] (setting [4]) and 66.7% in assay [2].
For the compound `NC(=O)C(O)c1cc(F)ccc1-c1ccccc1` (centres unmarked) [Example 186, 2-(4-fluorobiphenyl-2-yl)-2-hydroxyacetamide], the responders at 50 mg/kg in assay [1] (setting [3]) was 100%; in assay [2] it was 66.7%. Besides, the responders at 100 mg/kg in assay [1] (setting [4]) is 100%; in assay [2], 66.7%. The “anticonvulsant action in maximum electroshock seizure (MES) model test” value in assay [1] is “anticonvulsant action was observed”. The “anticonvulsant action in subcutaneously pentetrazol-injected model (scPTZ) test” value in assay [2] was “anticonvulsant action was observed”.
Take `CNC(=O)Cc1cc(F)ccc1-c1ccc(C(F)(F)F)cc1` [Example 136]: the responders at 100 mg/kg is 100% in assay [1] (setting [4]) and 0% in assay [2].
On to `NC(=O)C(O)c1cc(F)ccc1-c1cccc(F)c1` (centres unmarked) [Example 188, 2-(3′,4-difluorobiphenyl-2-yl)-2-hydroxyacetamide], for which the responders at 50 mg/kg in assay [1] (setting [3]) is 33.3%; in assay [2], 0%. Further, the responders at 100 mg/kg in assay [1] (setting [4]) is 100%; in assay [2], 66.7%.
For `NC(=O)C(O)c1ccccc1-c1ccccc1F` (single isomer, unassigned) [Example 213, 2-(2′-Fluorobiphenyl-2-yl)-2-hydroxyacetamide], in assay [1] (setting [3]), the “MES (positive number/tested number)” value was 0/3. Moreover, the responders at 100 mg/kg is 100% in assay [1] (setting [4]) and 33.3% in assay [2].
Take `CNC(=O)Cc1ccccc1-c1ccccc1` [Example 54, 2-(biphenyl-2-yl)-N-methylacetamide]: the responders at 50 mg/kg in assay [1] (setting [3]) is 100%. For the same compound, the responders at 100 mg/kg in assay [1] (setting [4]) is 100%; in assay [2], 33.3%.
For the compound `NC(=O)C(O)c1ccc(F)cc1-c1ccccc1` (centres unmarked) [Example 181, 2-(5-fluorobiphenyl-2-yl)-2-hydroxyacetamide], the responders at 50 mg/kg in assay [1] (setting [3]) was 33.3%; in assay [2], 0%. The responders at 100 mg/kg in assay [1] (setting [4]) was 100%; in assay [2], 66.7%.
As to `CNC(=O)Cc1cc(F)ccc1-c1cccc(F)c1` [Example 134], the responders at 100 mg/kg in assay [1] (setting [4]) was 100%; in assay [2], 0%.
In the case of `CNC(=O)C(OC)c1ccccc1-c1ccccc1` (centres unmarked) [Example 62, 2-(biphenyl-2-yl)-2-methoxy-N-methylacetamide], the responders at 50 mg/kg in assay [1] (setting [3]) is 66.7%. The responders at 100 mg/kg is 100% in assay [1] (setting [4]) and 33.3% in assay [2].
For `CNC(=O)Cc1ccccc1-c1ccc(C(F)(F)F)cc1` [Example 2, N-methyl-2-[4′-(trifluoromethyl)biphenyl-2-yl]acetamide] the same measures were 100%, 100% and 0%.
As to `CNC(=O)Cc1cc(C(F)(F)F)ccc1-c1ccc(Cl)cc1` [Example 138], the responders at 100 mg/kg is 0% in assay [1] (setting [4]) and 66.7% in assay [2].
The matching figures for `NC(=O)C(F)(F)c1ccccc1-c1ccccc1F` [Example 169]: 100% and 33.3%.
For the compound `CNC(=O)C(C)c1ccccc1-c1ccccc1F` (centres unmarked) [Example 58, 2-(2′-fluorobiphenyl-2-yl)-N-methyl propanamide], the responders at 50 mg/kg in assay [1] (setting [3]) and in assay [2] was 0% each time. The responders at 100 mg/kg in assay [1] (setting [4]) and in assay [2] was 66.7% throughout.
With `COC(C(=O)N(C)C)c1ccccc1-c1ccccc1` (centres unmarked) [Example 63, 2-(biphenyl-2-yl)-2-methoxy-N,N-dimethylacetamide], the values for the responders at 50 mg/kg in assay [1] (setting [3]) and in assay [2] were 0% and 33.3%, respectively. Moreover, the responders at 100 mg/kg in assay [1] (setting [4]) and in assay [2] was 66.7% throughout.
With `CNC(=O)C(C)c1ccccc1-c1cccc(F)c1` (centres unmarked) [Example 176], the responders at 100 mg/kg in assay [1] (setting [4]) is 33.3%; in assay [2], 0%.
Regarding `NC(=O)Cc1ccccc1-c1ccc(F)c(F)c1F` [Example 89, 2-(2′,3′,4′-trifluorobiphenyl-2-yl)acetamide], the responders at 50 mg/kg in assay [1] (setting [3]) was 0%; in assay [2] it was 33.3%. The figures for the responders at 100 mg/kg in assay [1] (setting [4]) and in assay [2] were 100% and 66.7%, respectively.
In the case of `NC(=O)Cc1ccccc1-c1cc(F)cc(F)c1F` [Example 67, 2-(2′,3′,5′-trifluorobiphenyl-2-yl)acetamide], the responders at 50 mg/kg in assay [1] (setting [3]) and in assay [2] was 66.7% each time. Besides, the responders at 100 mg/kg in assay [1] (setting [4]) and in assay [2] was 66.7% in each case. Also, the “anticonvulsant action in maximum electroshock seizure (MES) model test” value in assay [1] is reported as “anticonvulsant action was observed”. For the same compound, in assay [2], the “anticonvulsant action in subcutaneously pentetrazol-injected model (scPTZ) test” value is on record as “anticonvulsant action was observed”.
With `CN(C)C(=O)Cc1ccccc1-c1ccccc1C(F)(F)F` [Example 9], the responders at 100 mg/kg in assay [1] (setting [4]) is 33.3%. In assay [2], the responders at 50 mg/kg was 0% and the responders at 100 mg/kg was 66.7%.
Take `CNC(=O)C(OC)c1ccccc1-c1ccc(F)cc1` (centres unmarked) [Example 204]: in assay [1] (setting [3]), the responders at 50 mg/kg was 0%. The figures for the responders at 100 mg/kg in assay [1] (setting [4]) and in assay [2] were 100% and 0%, respectively.
As for `COC(C(N)=O)c1ccccc1-c1ccccc1` (centres unmarked) [Example 61, 2-(Biphenyl-2-yl)-2-methoxyacetamide], the responders at 50 mg/kg in assay [1] (setting [3]) and in assay [2] was 0% in each case. The responders at 100 mg/kg in assay [1] (setting [4]) was 66.7%; in assay [2], 100%.
`CNC(=O)Cc1cc(F)ccc1-c1ccc(F)cc1` [Example 115, 2-(4,4′-difluorobiphenyl-2-yl)-N-methylacetamide]: the responders at 50 mg/kg in assay [1] (setting [3]) is 100%. Further, the results for the responders at 100 mg/kg in assay [1] (setting [4]) and in assay [2] were 100% and 0%, respectively.
